From patent publication US20140005163A1 (NOVARTIS AG, priority 2010, published 2014)
Values after ≈ are worked out from the molar mass of the structure shown.

Columns and labels:
[1] = molecular target: T1, PI3K gamma (Homo sapiens, UniProt P48736); experiment: PI3K gamma kinase assay (Kinase-Glo luminescence); type: biochemical
T1 construct: His tag (C); made in house; host or cells: baculovirus (pVL1393); Tn5 or TiniPro insect cells; construct from Roger Williams lab, MRC LMB
In short: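 PI3Kγ (150 nM) reaction run 120 min at room temperature with phosphatidylinositol substrate (10 μg/mL) and ATP (1 μM) in Tris pH 7.5 buffer containing MgCl2, NaCl, CHAPS and DTT. Remaining ATP detected by Kinase-Glo luminescence; 8 concentrations per compound, IC50 from 4-parameter curve fitting.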

[2] = system: PKB Ser473 phosphorylation in Rat1-myr-HA-p110 delta cells; experiment: Reverse protein array assay, PKB Ser473 phosphorylation in Rat1-myr-p110 delta cells; type: cell-based; details: read-out: p-PKB IC50
In short: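 Compound exposure lasted 30 min in Rat1 cells bearing membrane-targeted HA-p110 isoforms, using 8 serial concentrations. Arrayed lysates, each spotted at four dilutions, gave relative fluorescence signals for phospho-Ser473 PKB.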

[3] = Solubility at pH 6.8; type: physicochemical; details: pH 6.8, aqueous buffer, thermodynamic from solid; read-out: solubility
In short: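 Following the procedure of Zhou et al. (2007), compound solubility was determined at pH 6.8.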

T1 sequence (P48736 144-1102 limits assumed): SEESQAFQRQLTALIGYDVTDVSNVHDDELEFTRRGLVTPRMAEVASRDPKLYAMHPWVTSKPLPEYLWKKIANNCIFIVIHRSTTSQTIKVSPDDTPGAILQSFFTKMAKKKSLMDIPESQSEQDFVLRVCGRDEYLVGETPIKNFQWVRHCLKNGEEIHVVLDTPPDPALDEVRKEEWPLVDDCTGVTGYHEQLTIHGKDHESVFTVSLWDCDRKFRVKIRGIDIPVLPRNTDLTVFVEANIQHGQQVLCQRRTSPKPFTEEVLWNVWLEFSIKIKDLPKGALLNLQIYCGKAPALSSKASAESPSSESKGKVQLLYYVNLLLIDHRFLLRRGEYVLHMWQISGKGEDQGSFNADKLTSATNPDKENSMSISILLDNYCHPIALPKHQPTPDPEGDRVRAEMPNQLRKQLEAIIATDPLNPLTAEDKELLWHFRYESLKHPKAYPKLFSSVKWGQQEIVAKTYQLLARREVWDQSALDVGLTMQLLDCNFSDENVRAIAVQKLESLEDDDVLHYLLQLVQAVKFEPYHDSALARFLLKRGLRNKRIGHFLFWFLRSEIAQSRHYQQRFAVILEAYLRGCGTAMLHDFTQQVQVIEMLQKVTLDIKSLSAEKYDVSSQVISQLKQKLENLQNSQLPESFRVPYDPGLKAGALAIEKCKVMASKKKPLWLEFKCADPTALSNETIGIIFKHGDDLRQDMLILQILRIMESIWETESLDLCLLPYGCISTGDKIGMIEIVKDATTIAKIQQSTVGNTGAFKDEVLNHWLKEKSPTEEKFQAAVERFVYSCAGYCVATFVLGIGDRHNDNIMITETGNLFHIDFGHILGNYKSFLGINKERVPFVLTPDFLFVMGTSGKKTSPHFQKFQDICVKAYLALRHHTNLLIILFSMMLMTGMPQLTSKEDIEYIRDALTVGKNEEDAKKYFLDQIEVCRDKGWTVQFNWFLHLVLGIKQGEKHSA

Compound	IC50 [1]	IC50 [2]	solubility [3]
Cc1c(-n2c(=O)n(C)c3cnc4ccc(-c5ccc(N(C)C)nc5)cc4c32)cnn1C [Example 4.4, 8-(6-Dimethylamino-pyridin-3-yl)-1-(1,5-dimethyl-1H-pyrazol-4-yl)-3-methyl-1,3-dihydro-imidazo[4,5-c]quinolin-2-one]	341 nM	155 nM	–
CCn1cc(-n2c(=O)n(C)c3cnc4ccc(-c5ccc(CO)nc5)cc4c32)c(C)n1 [Example 16.1, 1-(1-ethyl-3-methyl-1H-pyrazol-4-yl)-8-(6-hydroxymethyl-pyridin-3-yl)-3-methyl-1,3-dihydro-imidazo[4,5-c]quinolin-2-one]	415 nM	130 nM	75 µg/mL (≈ 181 µM)
Cc1nn(C(C)C)cc1-n1c(=O)n(C)c2cnc3ccc(-c4cnc(N(C)C)nc4)cc3c21 [Example 6.1, 8-(2-Dimethylamino-pyrimidin-5-yl)-1-(1-isopropyl-3-methyl-1H-pyrazol-4-yl)-3-methyl-1,3-dihydro-imidazo[4,5-c]quinolin-2-one]	182 nM	90 nM	–
Cc1nn(C(C)C)cc1-n1c(=O)n(C)c2cnc3ccc(-c4ccc(C(N)=O)nc4)cc3c21 [Example 112, 5-[1-(1-Isopropyl-3-methyl-1H-pyrazol-4-yl)-3-methyl-2-oxo-2,3-dihydro-1H-imidazo[4,5-c]quinolin-8-yl]-pyridine-2-carboxylic acid amide]	471 nM	69 nM	–
CNc1ccc(-c2ccc3ncc4c(c3c2)n(-c2cn(CC(=O)N(C)C)nc2C)c(=O)n4C)cn1 [Example 118.3, N,N-Dimethyl-2-{3-methyl-4-[3-methyl-8-(6-methylamino-pyridin-3-yl)-2-oxo-2,3-dihydro-imidazo[4,5-c]quinolin-1-yl]-pyrazol-1-yl}-acetamide]	138 nM	396 nM	21 µg/mL (≈ 44.6 µM)
COc1ccc(-c2ccc3ncc4c(c3c2)n(-c2cnn(C)c2C)c(=O)n4C)cn1 [Example 2.9, 1-(1,5-Dimethyl-1H-pyrazol-4-yl)-8-(6-methoxy-pyridin-3-yl)-3-methyl-1,3-dihydro-imidazo[4,5-c]quinolin-2-one]	206 nM	165 nM	–
CNC(=O)c1ccc(-c2ccc3ncc4c(c3c2)n(-c2cn(C)nc2Cl)c(=O)n4C)cc1 [Example 43.2, 4-[1-(3-Chloro-1-methyl-1H-pyrazol-4-yl)-3-methyl-2-oxo-2,3-dihydro-1H-imidazol[4,5-c]quinolin-8-yl]-N-methyl-benzamide]	114 nM	12 nM	–
COc1ccc(-c2ccc3ncc4c(c3c2)n(-c2c(C)nn(C)c2C)c(=O)n4C)cc1OC [Example 1.9, 8-(3,4-Dimethoxy-phenyl)-3-methyl-1-(1,3,5-trimethyl-1H-pyrazol-4-yl)-1,3-dihydro-imidazo[4,5-c]quinolin-2-one]	100 nM	140 nM	315 µg/mL (≈ 710 µM)
COc1ncc(-c2ccc3ncc4c(c3c2)n(-c2cn(C(C)C)nc2C)c(=O)n4C)c(OC)n1 [Example 234.3, 8-(2,4-Dimethoxy-pyrimidin-5-yl)-1-(1-isopropyl-3-methyl-1H-pyrazol-4-yl)-3-methyl-1,3-dihydro-imidazo[4,5-c]quinolin-2-one]	–	30 nM	13 µg/mL (≈ 28.3 µM)
COc1ccc(-c2ccc3ncc4c(c3c2)n(-c2ccnn2C)c(=O)n4C)cn1 [Example 2.2, 8-(6-Methoxy-pyridin-3-yl)-3-methyl-1-(2-methyl-2H-pyrazol-3-yl)-1,3-dihydro-imidazo[4,5-c]quinolin-2-one]	–	541 nM	4 µg/mL (≈ 10.4 µM)
CCOc1ccc(-c2ccc3ncc4c(c3c2)n(-c2cn(CCOC)nc2C)c(=O)n4C)cn1 [Example 131, 8-(6-Ethoxy-pyridin-3-yl)-1-[1-(2-methoxy-ethyl)-3-methyl-1H-pyrazol-4-yl]-3-methyl-1,3-dihydro-imidazo[4,5-c]quinolin-2-one]	–	127 nM	4 µg/mL (≈ 8.72 µM)
COc1cc(-c2ccc3ncc4c(c3c2)n(-c2cn(C(C)C)nc2C)c(=O)n4C)cnc1CO [Example 194.1, 8-(6-Hydroxymethyl-5-methoxy-pyridin-3-yl)-1-(1-isopropyl-3-methyl-1H-pyrazol-4-yl)-3-methyl-1,3-dihydro-imidazo[4,5-c]quinolin-2-one]	–	145 nM	129 µg/mL (≈ 281 µM)
CCOCc1ncc(-c2ccc3ncc4c(c3c2)n(-c2cn(C)nc2Cl)c(=O)n4C)cc1OC [Example 196.1, 1-(3-Chloro-1-methyl-1H-pyrazol-4-yl)-8-(6-ethoxymethyl-5-methoxy-pyridin-3-yl)-3-methyl-1,3-dihydro-imidazo[4,5-c]quinolin-2-one]	–	58 nM	44 µg/mL (≈ 91.9 µM)
COc1cc(-c2ccc3ncc4c(c3c2)n(-c2cn(CCO)nc2C)c(=O)n4C)cnc1C [Example 211.1, 1-[1-(2-Hydroxy-ethyl)-3-methyl-1H-pyrazol-4-yl]-8-(5-methoxy-6-methyl-pyridin-3-yl)-3-methyl-1,3-dihydro-imidazo[4,5-c]quinolin-2-one]	–	211 nM	3 µg/mL (≈ 6.75 µM)

Other lines, results leading:

IC50 [1]	IC50 [2]	solubility [3]	Compound
334 nM	570 nM	–	Cc1nn(C)cc1-n1c(=O)n(C)c2cnc3ccc(-c4ccc5c(c4)CCN5C)cc3c21 [Example 50, 1-(1,3-Dimethyl-1H-pyrazol-4-yl)-3-methyl-8-(1-methyl-2,3-dihydro-1H-indol-5-yl)-1,3-dihydro-imidazo[4,5-c]quinolin-2-one]
164 nM	12 nM	3 µg/mL (≈ 7.02 µM)	CNc1ccc(-c2ccc3ncc4c(c3c2)n(-c2cn(C(C)C)nc2C)c(=O)n4C)cn1 [Example 118.1, 1-(1-isopropyl-3-methyl-1H-pyrazol-4-yl)-3-methyl-8-(6-methylamino-pyridin-3-yl)-1,3-dihydro-imidazo[4,5-c]quinolin-2-one]
82 nM	202 nM	–	Cc1nn(C)cc1-n1c(=O)n(C)c2cnc3ccc(-c4cc(O)cc(C(F)(F)F)c4)cc3c21 [Example 34, 1-(1,3-Dimethyl-1H-pyrazol-4-yl)-8-(3-hydroxy-5-trifluoromethyl-phenyl)-3-methyl-1,3-dihydro-imidazo[4,5-c]quinolin-2-one]
343 nM	54 nM	3 µg/mL (≈ 7 µM)	CCCOc1ccc(-c2ccc3ncc4c(c3c2)n(-c2cn(C)nc2C)c(=O)n4C)cn1 [Example 55, 1-(1,3-Dimethyl-1H-pyrazol-4-yl)-3-methyl-8-(6-propoxy-pyridin-3-yl)-1,3-dihydro-imidazo[4,5-c]quinolin-2-one]
590 nM	158 nM	–	Cc1nn(C)cc1-n1c(=O)n(C)c2cnc3ccc(-c4ccc(OCC5CC5)nc4)cc3c21 [Example 42, 8-(6-Cyclopropylmethoxy-pyridin-3-yl)-1-(1,3-dimethyl-1H-pyrazol-4-yl)-3-methyl-1,3-dihydro-imidazo[4,5-c]quinolin-2-one]
118 nM	8 nM	–	Cc1nn(C)cc1-n1c(=O)n(C)c2cnc3ccc(-c4cnc5[nH]ccc5c4)cc3c21 [Example 36, 1-(1,3-dimethyl-1H-pyrazol-4-yl)-3-methyl-8-(1H-pyrrolo[2,3-b]pyridin-5-yl)-1,3-dihydro-imidazo[4,5-c]quinolin-2-one]
529 nM	37 nM	–	CCOc1ccc(-c2ccc3ncc4c(c3c2)n(-c2cn(C)nc2Cl)c(=O)n4C)cn1 [Example 3.8, 1-(3-Chloro-1-methyl-1H-pyrazol-4-yl)-8-(6-ethoxy-pyridin-3-yl)-3-methyl-1,3-dihydro-imidazo[4,5-c]quinolin-2-one]
777 nM	450 nM	242 µg/mL (≈ 652 µM)	Cc1nn(C)cc1-n1c(=O)n(C)c2cnc3ccc(-c4cncnc4)cc3c21 [Example 26, 1-(1,3-Dimethyl-1H-pyrazol-4-yl)-3-methyl-8-pyrimidin-5-yl-1,3-dihydro-imidazo[4,5-c]quinolin-2-one]
73 nM	297 nM	–	Cc1nn(C)cc1-n1c(=O)n(C)c2cnc3ccc(-c4cncc(S(C)(=O)=O)c4)cc3c21 [Example 22, 1-(1,3-Dimethyl-1H-pyrazol-4-yl)-8-(5-methanesulfonyl-pyridin-3-yl)-3-methyl-1,3-dihydro-imidazo[4,5-c]quinolin-2-one]
197 nM	288 nM	–	CCOc1cccc(-c2ccc3ncc4c(c3c2)n(-c2cn(C)nc2C)c(=O)n4C)c1 [Example 57, 1-(1,3-Dimethyl-1H-pyrazol-4-yl)-8-(3-ethoxy-phenyl)-3-methyl-1,3-dihydro-imidazo[4,5-c]quinolin-2-one]
225 nM	425 nM	3 µg/mL (≈ 6.3 µM)	Cc1nn(C)cc1-n1c(=O)n(C)c2cnc3ccc(-c4cccc(N(C)S(C)(=O)=O)c4)cc3c21 [Example 117, N-{3-[1-(1,3-Dimethyl-1H-pyrazol-4-yl)-3-methyl-2-oxo-2,3-dihydro-1H-imidazo[4,5-c]quinolin-8-yl]-phenyl}-N-methyl-methanesulfonamide]
129 nM	197 nM	42 µg/mL (≈ 113 µM)	Cc1nn(C)cc1-n1c(=O)n(C)c2cnc3ccc(-c4cccnc4)cc3c21 [Example 10.2, 1-(1,3-Dimethyl-1H-pyrazol-4-yl)-3-methyl-8-pyridin-3-yl-1,3-dihydro-imidazo[4,5-c]quinolin-2-one]
